Data reported in article doi:10.1101/2023.11.15.567208 (bioRxiv, 2024).

Legend:
[1] = biological target: T1, CGRP receptor (Calcrl and Ramp1) (Mus musculus, UniProt Q9R1W5+Q9WTJ5); experiment: CGRP-sniffer HEK293 cells, calcium (GCaMP6s) dose-response; assay type: cell-based; conditions: selectivity control; HEK293 expressing Calcrl, Ramp1, GCaMP6s and Gα15
T1 construct: expressed in transfected cells; host or cells: HEK293; Calcrl/Gα15/GCaMP6s by PiggyBac transposase (puromycin), Ramp1 by pSBbi-Neo-cmv-TETo2-RAMP1 IRES-mTagBFP2-NLS (geneticin); doxycycline-induced
Source text: The copyright holder for this preprint
(1 picture or pasted object on this page, not shown here)

[2] = biological target: T2, Substance P receptor (NKR1) (Mus musculus, UniProt P30548); experiment: Co-culture of DRG neurons with Substance P-sniffer cells, capsaicin-evoked Substance P release; assay type: cell-based; conditions: exogenous Substance P (10 nM); co-culture with WT or DKO DRG
T2 construct: T2A self-cleaving peptide remnant (from the polycistronic P2A-TACR1-T2A cassette) (C); expressed in transfected cells; host or cells: Flp-In T-REx HEK293 (Thermo Fisher Scientific, R78007), lentiviral transduction, hygromycin selection

[3] = ref Hylden and Wilcox, 1981, Malick and Goldstein, 1978, cited from earlier work
Source text: Alternatively, neuropeptides may have opposing effects in different parts of the circuitry meaning global loss of the gene may produce a net effect of no change in a particular behavior.

[4] = ref von Euler and Gaddum, 1931 (Substance P); Amara et al., 1982 (CGRPα); cited from earlier work
Source text: Among the most challenging diseases to treat is chronic pain. With over 20% of the population suffering from chronic pain, we urgently need to find new analgesic targets ([Nahin et al., 2023]).

T1 sequence (Q9R1W5 23-463): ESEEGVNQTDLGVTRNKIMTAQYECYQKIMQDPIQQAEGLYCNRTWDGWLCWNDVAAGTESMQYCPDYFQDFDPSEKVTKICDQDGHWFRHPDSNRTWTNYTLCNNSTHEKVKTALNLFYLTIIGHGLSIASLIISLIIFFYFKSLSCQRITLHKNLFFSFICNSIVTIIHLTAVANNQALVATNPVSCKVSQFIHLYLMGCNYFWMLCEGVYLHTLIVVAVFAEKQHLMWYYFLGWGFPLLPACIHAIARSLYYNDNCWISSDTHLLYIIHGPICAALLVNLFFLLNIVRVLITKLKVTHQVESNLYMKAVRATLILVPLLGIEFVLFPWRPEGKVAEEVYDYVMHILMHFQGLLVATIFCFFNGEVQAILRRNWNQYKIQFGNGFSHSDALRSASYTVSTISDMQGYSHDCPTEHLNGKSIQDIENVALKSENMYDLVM
T1 sequence (Q9WTJ5 27-148): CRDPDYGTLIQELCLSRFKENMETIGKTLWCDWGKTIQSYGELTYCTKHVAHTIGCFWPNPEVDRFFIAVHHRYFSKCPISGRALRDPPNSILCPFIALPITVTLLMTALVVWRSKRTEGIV
T2 sequence (P30548 whole entry): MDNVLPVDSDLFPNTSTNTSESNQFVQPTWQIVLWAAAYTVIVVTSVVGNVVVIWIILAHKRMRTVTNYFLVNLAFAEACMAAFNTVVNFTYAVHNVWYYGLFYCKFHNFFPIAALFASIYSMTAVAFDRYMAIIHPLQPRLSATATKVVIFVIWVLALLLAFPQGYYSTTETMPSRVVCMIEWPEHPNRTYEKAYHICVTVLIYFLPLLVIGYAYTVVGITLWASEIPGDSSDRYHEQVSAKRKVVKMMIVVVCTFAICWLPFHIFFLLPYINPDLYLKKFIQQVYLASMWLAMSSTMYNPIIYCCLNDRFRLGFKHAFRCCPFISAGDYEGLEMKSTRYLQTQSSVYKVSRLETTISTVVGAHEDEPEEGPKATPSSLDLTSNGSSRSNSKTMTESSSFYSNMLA

Substance P: 11-amino acid peptide first discovered as a tissue extract with contractile activity
Sensitivity of CGRP-sniffer cells [1]: insensitive
Substance P-sniffer activation by exogenous peptide [2]: activates Substance P-sniffers in both conditions
Effect in the brain ([3]; in the brain): analgesic
Effect of infusion into the spinal cord ([3]; infusion into the spinal cord): elicits pain
Contractile or vasodilator activity [4]: contractile activity
